Columns and labels:
Conditions in all cases: Compound concentration 1000.0 nM
[1] = molecular target: Mitogen-activated protein kinase kinase kinase 12 (Homo sapiens) (UniProt Q12852)
[2] = molecular target: MAP/microtubule affinity-regulating kinase 3 (Homo sapiens) (UniProt P27448)
[3] = molecular target: T1, Dual specificity mitogen-activated protein kinase kinase 6 (Homo sapiens) (UniProt P52564)
T1 sequence (whole entry): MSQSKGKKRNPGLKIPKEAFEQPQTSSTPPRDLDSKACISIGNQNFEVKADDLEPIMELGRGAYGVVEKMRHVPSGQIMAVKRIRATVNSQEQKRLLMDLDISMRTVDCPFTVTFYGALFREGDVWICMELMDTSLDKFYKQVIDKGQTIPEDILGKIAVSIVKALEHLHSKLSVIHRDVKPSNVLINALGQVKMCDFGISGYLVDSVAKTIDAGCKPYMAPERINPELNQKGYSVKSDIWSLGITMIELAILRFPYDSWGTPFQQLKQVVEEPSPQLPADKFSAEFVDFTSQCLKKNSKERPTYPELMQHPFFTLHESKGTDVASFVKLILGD

[4] = molecular target: T2, Discoidin domain-containing receptor 2 (Homo sapiens) (UniProt Q16832)
T2 sequence (whole entry): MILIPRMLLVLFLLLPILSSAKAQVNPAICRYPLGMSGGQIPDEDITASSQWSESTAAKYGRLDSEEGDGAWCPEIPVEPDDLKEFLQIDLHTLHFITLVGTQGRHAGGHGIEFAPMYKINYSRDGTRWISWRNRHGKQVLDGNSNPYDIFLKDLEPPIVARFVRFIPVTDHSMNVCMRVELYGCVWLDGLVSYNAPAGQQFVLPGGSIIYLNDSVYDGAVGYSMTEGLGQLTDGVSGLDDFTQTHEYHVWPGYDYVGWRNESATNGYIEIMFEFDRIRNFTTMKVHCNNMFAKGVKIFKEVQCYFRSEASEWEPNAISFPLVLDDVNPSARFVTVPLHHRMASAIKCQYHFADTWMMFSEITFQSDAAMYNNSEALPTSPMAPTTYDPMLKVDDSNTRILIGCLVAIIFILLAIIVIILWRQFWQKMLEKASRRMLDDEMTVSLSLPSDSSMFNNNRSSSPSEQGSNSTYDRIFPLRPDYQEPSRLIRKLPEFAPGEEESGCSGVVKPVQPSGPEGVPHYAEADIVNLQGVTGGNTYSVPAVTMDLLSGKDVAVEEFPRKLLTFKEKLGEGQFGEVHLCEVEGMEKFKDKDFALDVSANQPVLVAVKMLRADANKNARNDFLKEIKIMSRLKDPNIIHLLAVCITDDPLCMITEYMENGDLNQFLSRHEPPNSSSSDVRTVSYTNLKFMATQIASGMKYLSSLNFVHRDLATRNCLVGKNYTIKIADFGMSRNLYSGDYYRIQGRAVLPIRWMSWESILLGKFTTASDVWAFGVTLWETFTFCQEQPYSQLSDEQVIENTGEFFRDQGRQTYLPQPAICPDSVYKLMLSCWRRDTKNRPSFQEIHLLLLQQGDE

[5] = molecular target: T3, Serine/threonine-protein kinase NLK (Homo sapiens) (UniProt Q9UBE8)
T3 sequence (whole entry): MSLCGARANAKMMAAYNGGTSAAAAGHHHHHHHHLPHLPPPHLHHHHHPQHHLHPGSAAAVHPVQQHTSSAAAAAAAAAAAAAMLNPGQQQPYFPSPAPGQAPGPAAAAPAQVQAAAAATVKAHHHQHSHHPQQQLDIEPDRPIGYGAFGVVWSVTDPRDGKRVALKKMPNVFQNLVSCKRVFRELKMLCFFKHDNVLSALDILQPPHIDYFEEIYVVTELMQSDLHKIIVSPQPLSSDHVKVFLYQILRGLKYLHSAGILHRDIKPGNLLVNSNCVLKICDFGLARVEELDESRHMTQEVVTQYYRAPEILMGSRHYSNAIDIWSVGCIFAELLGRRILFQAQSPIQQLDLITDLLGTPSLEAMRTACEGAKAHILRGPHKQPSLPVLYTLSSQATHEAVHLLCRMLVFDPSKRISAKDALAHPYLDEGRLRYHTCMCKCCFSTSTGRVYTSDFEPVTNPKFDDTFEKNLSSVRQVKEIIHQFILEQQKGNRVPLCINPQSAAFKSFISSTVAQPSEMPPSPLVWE

[6] = molecular target: Ankyrin repeat and protein kinase domain-containing protein 1 (Homo sapiens) (UniProt Q8NFD2)
Sequence of Ankyrin repeat and protein kinase domain-containing protein 1 (Homo sapiens) (Q8NFD2 whole entry, the tested form may be a part): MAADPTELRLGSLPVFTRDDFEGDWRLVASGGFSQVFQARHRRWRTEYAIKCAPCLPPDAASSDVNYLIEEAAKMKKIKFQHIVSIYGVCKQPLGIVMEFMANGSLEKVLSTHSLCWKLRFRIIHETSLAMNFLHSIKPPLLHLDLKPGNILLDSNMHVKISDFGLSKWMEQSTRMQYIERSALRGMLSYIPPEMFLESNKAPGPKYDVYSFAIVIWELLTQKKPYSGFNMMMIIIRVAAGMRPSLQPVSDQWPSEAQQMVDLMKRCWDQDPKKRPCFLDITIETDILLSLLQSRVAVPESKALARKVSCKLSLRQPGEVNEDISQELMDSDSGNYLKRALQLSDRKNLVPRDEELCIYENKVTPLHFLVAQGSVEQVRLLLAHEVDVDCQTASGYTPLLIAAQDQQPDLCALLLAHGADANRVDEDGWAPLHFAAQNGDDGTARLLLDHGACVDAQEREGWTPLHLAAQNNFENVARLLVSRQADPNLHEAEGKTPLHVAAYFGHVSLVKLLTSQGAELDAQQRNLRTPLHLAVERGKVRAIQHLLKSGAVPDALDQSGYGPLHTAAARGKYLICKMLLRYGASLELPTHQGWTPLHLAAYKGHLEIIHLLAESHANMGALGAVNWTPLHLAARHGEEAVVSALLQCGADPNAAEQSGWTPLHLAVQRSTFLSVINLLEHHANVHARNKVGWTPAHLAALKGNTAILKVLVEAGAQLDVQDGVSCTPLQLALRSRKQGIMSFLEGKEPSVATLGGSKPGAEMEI

[7] = molecular target: Tyrosine-protein kinase Fyn (Homo sapiens) (UniProt P06241)
Sequence of Tyrosine-protein kinase Fyn (Homo sapiens) (P06241 2-537 limits assumed): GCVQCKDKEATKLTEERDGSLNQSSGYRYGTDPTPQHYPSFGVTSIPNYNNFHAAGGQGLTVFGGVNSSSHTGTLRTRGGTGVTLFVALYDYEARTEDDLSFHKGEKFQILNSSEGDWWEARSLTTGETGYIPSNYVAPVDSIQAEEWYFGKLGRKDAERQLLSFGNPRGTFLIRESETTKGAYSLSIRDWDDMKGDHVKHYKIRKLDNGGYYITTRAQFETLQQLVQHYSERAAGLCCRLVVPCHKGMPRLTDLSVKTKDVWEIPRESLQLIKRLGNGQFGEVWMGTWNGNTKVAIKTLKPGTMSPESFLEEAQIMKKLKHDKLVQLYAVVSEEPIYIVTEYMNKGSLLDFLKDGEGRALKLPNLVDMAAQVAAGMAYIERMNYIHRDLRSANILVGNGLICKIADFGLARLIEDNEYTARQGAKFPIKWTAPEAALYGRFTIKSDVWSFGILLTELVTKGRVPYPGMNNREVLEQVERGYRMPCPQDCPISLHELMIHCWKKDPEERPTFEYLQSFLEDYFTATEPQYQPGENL

[8] = molecular target: Calcium/calmodulin-dependent protein kinase type 1 (Homo sapiens) (UniProt Q14012)
Sequence of Calcium/calmodulin-dependent protein kinase type 1 (Homo sapiens) (Q14012 whole entry, looked up): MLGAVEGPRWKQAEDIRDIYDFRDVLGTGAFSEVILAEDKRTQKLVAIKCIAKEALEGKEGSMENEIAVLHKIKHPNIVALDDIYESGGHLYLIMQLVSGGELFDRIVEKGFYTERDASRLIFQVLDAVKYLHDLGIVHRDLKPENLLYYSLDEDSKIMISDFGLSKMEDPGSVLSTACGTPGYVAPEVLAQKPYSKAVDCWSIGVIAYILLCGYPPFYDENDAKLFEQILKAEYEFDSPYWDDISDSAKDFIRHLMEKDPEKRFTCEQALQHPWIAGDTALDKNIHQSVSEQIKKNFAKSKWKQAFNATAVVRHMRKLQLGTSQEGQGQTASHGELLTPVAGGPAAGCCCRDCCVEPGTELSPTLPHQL

Measured: residual activity

Sequence of Mitogen-activated protein kinase kinase kinase 12 (Homo sapiens) (Q12852 whole entry): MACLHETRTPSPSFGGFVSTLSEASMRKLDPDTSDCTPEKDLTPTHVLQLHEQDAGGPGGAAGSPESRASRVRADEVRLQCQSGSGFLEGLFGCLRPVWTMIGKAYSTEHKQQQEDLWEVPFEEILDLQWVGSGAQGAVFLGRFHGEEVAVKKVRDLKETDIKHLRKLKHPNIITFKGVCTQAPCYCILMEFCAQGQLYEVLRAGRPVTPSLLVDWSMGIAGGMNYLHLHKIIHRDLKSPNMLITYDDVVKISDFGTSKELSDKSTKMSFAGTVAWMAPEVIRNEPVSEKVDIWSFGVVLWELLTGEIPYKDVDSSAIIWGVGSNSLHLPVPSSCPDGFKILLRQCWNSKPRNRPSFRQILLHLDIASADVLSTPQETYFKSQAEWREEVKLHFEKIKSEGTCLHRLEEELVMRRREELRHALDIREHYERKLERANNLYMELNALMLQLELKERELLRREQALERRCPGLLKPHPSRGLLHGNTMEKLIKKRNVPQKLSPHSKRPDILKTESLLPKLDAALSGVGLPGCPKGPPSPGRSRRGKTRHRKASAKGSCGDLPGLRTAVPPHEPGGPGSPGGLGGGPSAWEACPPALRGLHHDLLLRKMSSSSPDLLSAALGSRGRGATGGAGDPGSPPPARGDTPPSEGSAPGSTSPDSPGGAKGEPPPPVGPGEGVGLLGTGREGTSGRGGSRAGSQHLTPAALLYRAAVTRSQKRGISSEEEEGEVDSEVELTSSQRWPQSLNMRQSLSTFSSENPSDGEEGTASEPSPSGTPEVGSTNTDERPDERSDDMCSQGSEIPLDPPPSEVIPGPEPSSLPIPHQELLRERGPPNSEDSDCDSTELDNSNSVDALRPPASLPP
Sequence of MAP/microtubule affinity-regulating kinase 3 (Homo sapiens) (P27448 whole entry, looked up): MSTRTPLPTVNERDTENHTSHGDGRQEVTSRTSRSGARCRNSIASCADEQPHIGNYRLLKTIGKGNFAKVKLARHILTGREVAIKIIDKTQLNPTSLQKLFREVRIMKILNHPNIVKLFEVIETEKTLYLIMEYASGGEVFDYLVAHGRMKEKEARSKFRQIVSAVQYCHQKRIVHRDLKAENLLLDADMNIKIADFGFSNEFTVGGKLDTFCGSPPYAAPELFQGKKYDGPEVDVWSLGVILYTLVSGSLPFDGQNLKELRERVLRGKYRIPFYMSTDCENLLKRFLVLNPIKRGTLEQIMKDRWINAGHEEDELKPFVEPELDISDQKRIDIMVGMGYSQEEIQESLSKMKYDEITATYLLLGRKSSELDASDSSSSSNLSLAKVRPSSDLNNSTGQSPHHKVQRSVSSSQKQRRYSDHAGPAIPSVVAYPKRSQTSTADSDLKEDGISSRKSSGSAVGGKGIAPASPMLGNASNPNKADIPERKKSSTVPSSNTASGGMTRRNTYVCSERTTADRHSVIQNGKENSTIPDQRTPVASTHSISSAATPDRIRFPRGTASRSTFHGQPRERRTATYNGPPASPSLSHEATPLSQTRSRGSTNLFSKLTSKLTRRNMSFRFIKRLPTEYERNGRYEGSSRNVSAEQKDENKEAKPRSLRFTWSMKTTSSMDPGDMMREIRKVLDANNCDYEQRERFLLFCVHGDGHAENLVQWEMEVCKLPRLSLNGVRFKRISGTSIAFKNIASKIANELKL

CN(C)C(=O)Cn1cc(-c2nc(C3(c4ccc(-c5cnc(N)nc5)cc4)CC3)no2)cn1 [BI 0153]
inactive: [1] 100% | [2] 100% | [3] 100% | [4] 100% | [5] 94% | [6] 81% | [7] 100% | [8] 100%

CN(C)C(=O)Cn1cc(-c2nc([C@@](C)(c3ccc(-c4cnc(N)nc4)cc3)C3CC3)no2)cn1 [BI 665915]
inactive: [1] 80% | [2] 99% | [3] 100% | [4] 89% | [5] 95% | [6] 81% | [7] 86% | [8] 100%

— ChEMBL document CHEMBL4507276 (2021)
